According to PMC9217908, “Screening of commonly prescribed drugs for effects on the CAT1-mediated transport of L-arginine and arginine derivatives” (Amino Acids, 2022):
Where two headings read alike, the source gives them in different places.

How the values were obtained:
Experiment in all cases: cell-based
[1] = molecular target: T1, CAT1 (cationic amino acid transporter 1, CAT1/SLC7A1) (Homo sapiens, UniProt P30825); parameters: species or system HEK-CAT1 (HEK293 stably transfected); Inhibition of net CAT1-mediated [3H]-ADMA (1 uM) uptake, 2.5 min, scintillation counting, vector control subtracted; conditions: HEK293, ADMA 1 uM as substrate; for inhibition at 20 µM: read-out: % Inhibition of ADMA uptake at 20 µM; for inhibition at 200 µM: read-out: % Inhibition of ADMA uptake at 200 µM
T1 construct: full-length human transporter stably transfected in HEK cells (HEK-CAT1); net uptake against HEK-VC vector control cells
Outline: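 HEK cells expressing CAT1 and vector-control cells took up [^3H]-L-arginine for 5 min, or [^3H]-L-homoarginine or [^3H]-ADMA (1 μM) for 2.5 min, with or without drug at 20 or 200 µM. Net CAT1 uptake was CAT1 cells minus control cells, and inhibition (%) = 100 − V/V0×100. Negative values mean stimulation; n = 6–9.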

[2] = molecular target: T1, CAT1 (cationic amino acid transporter 1, CAT1/SLC7A1); parameters: species or system HEK-CAT1 (HEK293 stably transfected); Inhibition of net CAT1-mediated [3H]-L-homoarginine (1 uM) uptake, 2.5 min, scintillation counting, vector control subtracted; conditions: HEK293, L-homoarginine 1 uM as substrate; for inhibition at 20 µM: read-out: % Inhibition of L-homoarginine uptake at 20 µM; for inhibition at 200 µM: read-out: % Inhibition of L-homoarginine uptake at 200 µM
Outline: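 HEK-CAT1 cells with HEK-VC vector controls; [3H]-L-homoarginine (1 μM) uptake over 2.5 min with or without test compound at 20 µM or 200 µM. Net CAT1 uptake (CAT1 minus VC) gives inhibition (%) = 100 – (V/V0 × 100). Negative values mean stimulated uptake; n = 6–9 from at least two independent experiments.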

[3] = molecular target: T1, CAT1 (cationic amino acid transporter 1, CAT1/SLC7A1); parameters: species or system HEK-CAT1 (HEK293 stably transfected); Inhibition of net CAT1-mediated [3H]-L-arginine (100 uM) uptake, 5 min, scintillation counting, vector control subtracted; conditions: HEK293, L-arginine 100 uM as substrate; for inhibition at 20 µM: read-out: % Inhibition of L-arginine uptake at 20 µM; for inhibition at 200 µM: read-out: % Inhibition of L-arginine uptake at 200 µM
Outline: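 HEK-CAT1 and vector-control HEK-VC cells took up [3H]-L-arginine (100 μM) for 5 min, with or without drug at 20 or 200 µM; [3H]-L-homoarginine or [3H]-ADMA uptake ran 2.5 min. Net uptake is CAT1 minus VC cells, and inhibition (%) = 100 − (V/V0 × 100). Negative values mean stimulated uptake.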

T1 sequence (P30825 whole entry): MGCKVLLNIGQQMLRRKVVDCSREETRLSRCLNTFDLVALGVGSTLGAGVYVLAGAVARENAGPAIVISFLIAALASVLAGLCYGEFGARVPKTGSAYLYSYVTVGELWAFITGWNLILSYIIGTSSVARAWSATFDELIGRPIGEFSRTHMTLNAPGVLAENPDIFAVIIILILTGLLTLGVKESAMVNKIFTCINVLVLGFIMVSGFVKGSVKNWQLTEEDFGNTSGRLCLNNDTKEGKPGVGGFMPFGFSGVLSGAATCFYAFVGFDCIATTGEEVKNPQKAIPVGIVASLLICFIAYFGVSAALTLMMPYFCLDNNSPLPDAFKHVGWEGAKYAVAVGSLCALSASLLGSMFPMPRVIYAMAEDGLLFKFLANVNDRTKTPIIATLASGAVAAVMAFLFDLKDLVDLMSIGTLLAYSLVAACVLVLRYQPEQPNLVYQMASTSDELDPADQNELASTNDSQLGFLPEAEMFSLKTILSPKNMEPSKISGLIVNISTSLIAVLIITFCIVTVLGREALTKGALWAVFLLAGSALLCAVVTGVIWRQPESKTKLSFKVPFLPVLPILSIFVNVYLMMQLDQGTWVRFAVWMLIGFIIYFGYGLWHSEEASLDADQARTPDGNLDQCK

Compound | inhibition at 20 µM [1] [%] | inhibition at 200 µM [1] [%] | inhibition at 20 µM [2] [%] | inhibition at 200 µM [2] [%] | inhibition at 20 µM [3] [%] | inhibition at 200 µM [3] [%]
CCCc1nc(C(C)(C)O)c(C(=O)O)n1Cc1ccc(-c2ccccc2-c2nnn[nH]2)cc1 [Olmesartan] | -13.2 ± 1.9 | -7.7 ± 3.5 | 3 ± 2.3 | -13.7 ± 5.1 | 2.8 ± 2.3 | -32.8 ± 1.4
CCN(CC)CCCC(C)Nc1ccnc2cc(Cl)ccc12 (centres unmarked) [Chloroquine] | -27 ± 16.2 | -23.1 ± 8.2 | -35.1 ± 5.2 | -54.8 ± 6.9 | -6.1 ± 1.1 | -11.4 ± 2.6
COc1ccc(OC)c(C(O)C(C)N)c1 (centres unmarked) [Methoxamine] | 0.7 ± 11.9 | 1.8 ± 0.9 | 0.7 ± 11.9 | -23.9 ± 2.1 | 24.5 ± 10.5 | -23.9 ± 3.7
Oc1ncnc2[nH]ncc12 [Allopurinol] | 16.9 ± 2.6 | 2 ± 7 |  | -2.6 ± 1.6 | 5 ± 16.4 | 14.1 ± 9.6
CO/N=C(\C(=O)N[C@@H]1C(=O)N2C(C(=O)O)=C(COC(N)=O)CS[C@H]12)c1ccco1 [Cefuroxime] | -7.1 ± 2.9 | -11.5 ± 2.8 | 16.8 ± 1.6 | -8.5 ± 5.9 | 17.3 ± 3.5 | -9.8 ± 8.4
CC[C@H](C)C(=O)O[C@H]1C[C@H](O)C=C2C=C[C@H](C)[C@H](CC[C@@H](O)C[C@@H](O)CC(=O)O)[C@H]21 [Pravastatin] | -18.5 ± 3.3 | -4.4 ± 9.6 | -0.4 ± 3.8 | -10.1 ± 1.4 | 0.2 ± 4.4 | 4.1 ± 2.6
CCN(CC)CCNC(=O)c1cc(Cl)c(N)cc1OC [Metoclopramide] | -3.2 ± 2.1 | 4.2 ± 9.4 | -6.3 ± 1.4 | 1.4 ± 3.2 | 7.5 ± 2.1 | 2.5 ± 3.5
CN(C)CCCN1c2ccccc2CCc2ccc(Cl)cc21 [Clomipramine] | 18 ± 3.1 | 14 ± 1.9 | -4.5 ± 0.7 | -12.2 ± 3.9 | -4.1 ± 0.9 | -12.8 ± 4.8
CN(C)CCC=C1c2ccccc2CCc2ccccc21 [Amitriptyline] | 5.6 ± 2.9 | -13.4 ± 3 | 0.6 ± 1.7 | 29.7 ± 3.2 | 35.9 ± 3.6 | 26.9 ± 4.7
COc1cc(Cc2cnc(N)nc2N)cc(OC)c1OC [Trimethoprim] | -13.7 ± 2.8 | -68.1 ± 11.3 | -17 ± 1.9 | -13.8 ± 4.1 | 9.9 ± 4.2 | -16.3 ± 6.7
O[C@@H](CNC[C@H](O)[C@H]1CCc2cc(F)ccc2O1)[C@@H]1CCc2cc(F)ccc2O1 (racemic) [Nebivolol] | -2.9 ± 1.7 | -6.6 ± 15.4 | -4.6 ± 1.9 | 0.3 ± 3.1 | 5.2 ± 3 | 1.3 ± 2.9
CNCCC(Oc1ccc(C(F)(F)F)cc1)c1ccccc1 (centres unmarked) [Fluoxetine] | -2.4 ± 2 | -18.8 ± 7.8 | -4.4 ± 5.2 | 25.6 ± 1.2 | 46.5 ± 8.5 | 26 ± 1.5
COc1ccnc(C[S+]([O-])c2nc3cc(OC(F)F)ccc3[nH]2)c1OC (centres unmarked) [Pantoprazole] | -4.5 ± 1.7 | -9.9 ± 3.1 | 15.2 ± 1.8 | 12.5 ± 0.3 | 16.7 ± 2.1 | 10.5 ± 0.9
c1c[nH]cn1 [Imidazole] | -4.7 ± 2.1 | 20.7 ± 14.1 | -3.2 ± 2 | -10.8 ± 1.6 | -6.3 ± 5.9 | -8.5 ± 1.5
CCc1nc(N)nc(N)c1-c1ccc(Cl)cc1 [Pyrimethamine] | -37.1 ± 7.2 | 23.4 ± 0.3 | -25.8 ± 15.5 | 31.6 ± 2.7 | 6.9 ± 9.6 | 31.2 ± 2.3
CN(C)CCCC1(c2ccc(F)cc2)OCc2cc(C#N)ccc21 (centres unmarked) [Citalopram] | 8.8 ± 3.3 | -15.6 ± 8.1 | 8.8 ± 3.3 | 29.6 ± 3.1 | -16.7 ± 9.2 | 42.8 ± 4.1
C=CC[C@@H]1/C=C(\C)C[C@H](C)C[C@H](OC)[C@H]2O[C@@](O)(C(=O)C(=O)N3CCCC[C@H]3C(=O)O[C@H](/C(C)=C/[C@@H]3CC[C@@H](O)[C@H](OC)C3)[C@H](C)[C@@H](O)CC1=O)[C@H](C)C[C@@H]2OC [Tacrolimus] | -14.2 ± 1.2 | -11.8 ± 2.4 | -10.3 ± 3.6 | 13.4 ± 1.1 | 28.5 ± 3.7 | 69.6 ± 4.8
N=C(N)NC(=O)c1nc(Cl)c(N)nc1N [Amiloride] | 1.5 ± 3.2 | -17.1 ± 2.3 | 1.5 ± 3.2 | 12.6 ± 2.6 | -0.1 ± 9.7 | 10.9 ± 3.9
CN(Cc1cnc2nc(N)nc(N)c2n1)c1ccc(C(=O)N[C@@H](CCC(=O)O)C(=O)O)cc1 [Methotrexate] | 5.4 ± 4.3 | 9.9 ± 4.5 | 19.5 ± 1 | -6.8 ± 0.9 | 22.3 ± 0.8 | -7.1 ± 2.1
CCCC(CCC)C(=O)O [Valproic acid] | -7.6 ± 4 | -47.5 ± 6 | 10.2 ± 1.4 | -9.5 ± 5.1 | 12.6 ± 2.5 | -3.1 ± 6.1

The remaining lines, values ahead:

inhibition at 20 µM [1] [%] | inhibition at 200 µM [1] [%] | inhibition at 20 µM [2] [%] | inhibition at 200 µM [2] [%] | inhibition at 20 µM [3] [%] | inhibition at 200 µM [3] [%] | Compound
-24.9 ± 8.3 | -17.5 ± 1.8 | -2.9 ± 2.8 | -1.1 ± 2.2 | -2.6 ± 3.2 | 0.4 ± 2.1 | CCCN(CCC)S(=O)(=O)c1ccc(C(=O)O)cc1 [Probenecid]
-2.8 ± 1.6 | 16.2 ± 4.2 | -11.1 ± 1.9 | -14.9 ± 2.5 | -13.1 ± 0.7 | -17.2 ± 15.5 | CC(C)NCC(O)COc1ccc(COCCOC(C)C)cc1 (centres unmarked) [Bisoprolol]
4.8 ± 2.1 | 12.8 ± 4.2 | 18.9 ± 3.5 | 12.7 ± 3.9 | 17.8 ± 4.1 | 0.7 ± 4.3 | NC(=O)N1c2ccccc2C=Cc2ccccc21 [Carbamazepine]
13.4 ± 4.4 | -11.8 ± 3.7 | -9.8 ± 4.4 | -24.7 ± 3.1 | -8.6 ± 4.3 | -27.2 ± 4.2 | Nc1ccc(S(=O)(=O)c2ccc(N)cc2)cc1 [Dapsone]
2.7 ± 5.9 | 10.2 ± 3.2 | 13.3 ± 1 | 8.8 ± 1.1 | 14.9 ± 2 | 5.9 ± 2.9 | CC1(C)S[C@@H]2[C@H](NC(=O)[C@H](N)c3ccc(O)cc3)C(=O)N2[C@H]1C(=O)O [Amoxicillin]
-14.7 ± 3.8 | -3.9 ± 3.4 | 8.1 ± 4.7 | 4.4 ± 0.7 | 6.6 ± 4.9 | 2.4 ± 1.6 | CC(=O)Nc1ccc(O)cc1 [Acetaminophen]
-27.2 ± 3.6 | -36.3 ± 9.5 | -21.6 ± 0.7 | -3.5 ± 2.1 | -0.9 ± 8.1 | -1.1 ± 7.8 | CC(C)NCC(O)COc1cccc2ccccc12 (centres unmarked) [Propranolol]
-11 ± 8.1 | -8.9 ± 14.9 | 1.9 ± 5.4 | 0.8 ± 3.1 | 6.4 ± 4.4 | 1.5 ± 4.1 | COC(=O)[C@H](c1ccccc1Cl)N1CCc2sccc2C1 [Clopidogrel]
-4.8 ± 2.1 | 0.2 ± 3.2 | 10.1 ± 2.9 | 8.9 ± 0.4 | 16.3 ± 6.6 | 13.1 ± 2 | CC(C)OC(=O)C(C)(C)Oc1ccc(C(=O)c2ccc(Cl)cc2)cc1 [Fenofibrate]
-7.4 ± 4.4 | 3.6 ± 2.1 | -9.6 ± 2.8 | -18.2 ± 1 | -2.2 ± 5.9 | -39.2 ± 1.4 | CCOC(=O)C1=C(C)NC(C)=C(C(=O)OC)C1c1cccc(Cl)c1Cl (centres unmarked) [Felodipine]
